The text below walks through data of paper PMC5218480 (PLoS ONE, 2017).

For the assay, the system named is MV-4-11 cells. The assay is described as follows: Gene expression microarray analysis (Affymetrix PrimeView) and GSEA. Also noted: RFU PODN (11730768_x_at) / Fold change /veh PODN (11730768_x_at) / RFU LINC00158 (11744669_a_at) / Fold change /veh LINC00158 (11744669_a_at) / RFU DUSP10 (11751237_a_at) / Fold change /veh DUSP10 (11751237_a_at) / RFU ID3 (11757404_x_at) / Fold change /veh ID3 (11757404_x_at) / RFU PLEKHG5 (11737974_s_at) / Fold change /veh PLEKHG5 (11737974_s_at) / RFU LRRC4B (11730491_at) / Fold change /veh LRRC4B (11730491_at) / RFU GIMAP4 (11747438_a_at) / Fold change /veh GIMAP4 (11747438_a_at) / RFU KRT8 (11758183_x_at) / Fold change /veh KRT8 (11758183_x_at) / RFU CNN1 (11734310_a_at) / Fold change /veh CNN1 (11734310_a_at) / RFU VPS37D (11726825_at) / Fold change /veh VPS37D (11726825_at) / RFU C10orf10 (11716522_x_at) / Fold change /veh C10orf10 (11716522_x_at) / RFU KIR2DL2 /// KIR2DL4 /// KIR2DL5A /// KIR2DL5B /// KIR2DS1 /// KIR2DS2 /// KIR2DS3 /// KIR2DS4 /// KIR3DL3 /// KIR3DL3 /// KIR3DS1 (11738374_at) / Fold change /veh KIR2DL2 /// KIR2DL4 /// KIR2DL5A /// KIR2DL5B /// KIR2DS1 /// KIR2DS2 /// KIR2DS3 /// KIR2DS4 /// KIR3DL3 /// KIR3DL3 /// KIR3DS1 (11738374_at) / RFU C1QL1 (11718748_at) / Fold change /veh C1QL1 (11718748_at) / RFU TMPRSS4 (11747572_a_at) / Fold change /veh TMPRSS4 (11747572_a_at) / RFU HAMP (11756126_x_at) / Fold change /veh HAMP (11756126_x_at) / RFU RNFT2 (11725882_a_at) / Fold change /veh RNFT2 (11725882_a_at) / RFU NR4A2 (11747474_a_at) / Fold change /veh NR4A2 (11747474_a_at) / RFU ABCC12 (11746883_a_at) / Fold change /veh ABCC12 (11746883_a_at) / RFU TMEM136 (11760407_x_at) / Fold change /veh TMEM136 (11760407_x_at) / RFU CLDN22 /// WWC2 (11732394_at) / Fold change /veh CLDN22 /// WWC2 (11732394_at) / RFU HLA-DPB1 (11760878_x_at) / Fold change /veh HLA-DPB1 (11760878_x_at) / RFU SPINT1 (11716480_a_at) / Fold change /veh SPINT1 (11716480_a_at) / RFU GAP43 (11754022_s_at) / Fold change /veh GAP43 (11754022_s_at) / RFU A4GNT (11735810_at) / Fold change /veh A4GNT (11735810_at) / RFU PRB3 (11715151_x_at) / Fold change /veh PRB3 (11715151_x_at) / RFU TUBB4B (11761932_at) / Fold change /veh TUBB4B (11761932_at) / RFU CAPN14 (11732068_a_at) / Fold change /veh CAPN14 (11732068_a_at) / RFU TMCC2 (11721928_a_at) / Fold change /veh TMCC2 (11721928_a_at) / RFU IRGQ (11745062_a_at) / Fold change /veh IRGQ (11745062_a_at) / RFU FAM174B (11720279_a_at) / Fold change /veh FAM174B (11720279_a_at) / RFU TMPRSS4 (11748680_a_at) / Fold change /veh TMPRSS4 (11748680_a_at) / RFU FAM212B (11763350_a_at) / Fold change /veh FAM212B (11763350_a_at) / RFU PLEKHG5 (11743358_a_at) / Fold change /veh PLEKHG5 (11743358_a_at) / RFU ZSCAN30 (11745921_a_at) / Fold change /veh ZSCAN30 (11745921_a_at) / RFU CMKLR1 (11741424_a_at) / Fold change /veh CMKLR1 (11741424_a_at) / RFU LOC101060620 /// MAPK8IP1 (11723275_at) / Fold change /veh LOC101060620 /// MAPK8IP1 (11723275_at) / RFU SPTSSB (11747773_x_at) / Fold change /veh SPTSSB (11747773_x_at) / RFU PRSS12 (11739890_at) / Fold change /veh PRSS12 (11739890_at) / RFU BIN1 (11741810_x_at) / Fold change /veh BIN1 (11741810_x_at) / RFU WNT11 (11732464_a_at) / Fold change /veh WNT11 (11732464_a_at) / RFU C10orf10 (11716521_a_at) / Fold change /veh C10orf10 (11716521_a_at) / RFU C5orf56 (11738089_at) / Fold change /veh C5orf56 (11738089_at) / RFU CYB561 (11721691_x_at) / Fold change /veh CYB561 (11721691_x_at) / RFU ANKRD19P (11752326_a_at) / Fold change /veh ANKRD19P (11752326_a_at) / RFU OR2T12 /// OR2T33 /// OR2T8 (11738714_s_at) / Fold change /veh OR2T12 /// OR2T33 /// OR2T8 (11738714_s_at) / RFU VCAN (11748164_a_at) / Fold change /veh VCAN (11748164_a_at) / RFU JSRP1 (11732532_at) / Fold change /veh JSRP1 (11732532_at) / RFU KRTAP10-11 (11738290_x_at) / Fold change /veh KRTAP10-11 (11738290_x_at) / RFU MYO3A (11730013_a_at) / Fold change /veh MYO3A (11730013_a_at) / RFU EBF3 (11725865_a_at) / Fold change /veh EBF3 (11725865_a_at) / RFU CAMK2N1 (11719241_x_at) / Fold change /veh CAMK2N1 (11719241_x_at) / RFU C5orf56 (11738088_a_at) / Fold change /veh C5orf56 (11738088_a_at) / RFU OLFML3 (11715873_a_at) / Fold change /veh OLFML3 (11715873_a_at) / RFU LOC100653217 /// NTM (11731650_a_at) / Fold change /veh LOC100653217 /// NTM (11731650_a_at) / RFU MAPK11 (11762145_a_at) / Fold change /veh MAPK11 (11762145_a_at) / RFU FIZ1 (11724087_x_at) / Fold change /veh FIZ1 (11724087_x_at) / RFU OASL (11726364_x_at) / Fold change /veh OASL (11726364_x_at) / RFU SOX15 (11748057_x_at) / Fold change /veh SOX15 (11748057_x_at) / RFU CD79A (11719716_a_at) / Fold change /veh CD79A (11719716_a_at) / RFU HIST1H1D (11736915_at) / Fold change /veh HIST1H1D (11736915_at) / RFU CASKIN2 (11723855_a_at) / Fold change /veh CASKIN2 (11723855_a_at) / RFU LOC730098 (11760151_x_at) / Fold change /veh LOC730098 (11760151_x_at) / RFU OR4N2 (11742367_at) / Fold change /veh OR4N2 (11742367_at) / RFU PRRT2 (11749266_a_at) / Fold change /veh PRRT2 (11749266_a_at) / RFU SNX32 (11753110_a_at) / Fold change /veh SNX32 (11753110_a_at) / RFU CDHR5 (11726645_a_at) / Fold change /veh CDHR5 (11726645_a_at) / RFU RCAN1 (11760418_a_at) / Fold change /veh RCAN1 (11760418_a_at) / RFU FAM167A (11723789_a_at) / Fold change /veh FAM167A (11723789_a_at) / RFU FAM26E (11764081_at) / Fold change /veh FAM26E (11764081_at) / RFU ISYNA1 (11749810_s_at) / Fold change /veh ISYNA1 (11749810_s_at) / RFU ACY1 (11761880_at) / Fold change /veh ACY1 (11761880_at) / RFU 11764098_at / Fold change /veh 11764098_at / RFU SAMD14 (11745864_x_at) / Fold change /veh SAMD14 (11745864_x_at) / RFU NPB (11741838_a_at) / Fold change /veh NPB (11741838_a_at) / RFU TMPRSS6 (11731388_a_at) / Fold change /veh TMPRSS6 (11731388_a_at) / RFU KRTAP10-2 (11738614_at) / Fold change /veh KRTAP10-2 (11738614_at) / RFU ARHGAP8 /// PRR5-ARHGAP8 (11727945_x_at) / Fold change /veh ARHGAP8 /// PRR5-ARHGAP8 (11727945_x_at) / RFU KRTAP5-7 /// NADSYN1 (11734609_at) / Fold change /veh KRTAP5-7 /// NADSYN1 (11734609_at) / RFU RASL12 (11751679_a_at) / Fold change /veh RASL12 (11751679_a_at) / RFU CDKN2B (11736163_a_at) / Fold change /veh CDKN2B (11736163_a_at) / RFU PRF1 (11729649_at) / Fold change /veh PRF1 (11729649_at) / RFU, ZNF638 /// ZNF638-IT1 / Fold change vs veh, ZNF638 /// ZNF638-IT1 / RFU, PANK3 / Fold change vs veh, PANK3 / RFU, SH3YL1 / Fold change vs veh, SH3YL1 / RFU, ZEB2 / Fold change vs veh, ZEB2 / RFU, NRIP1 / Fold change vs veh, NRIP1 / RFU, PTTG1IP / Fold change vs veh, PTTG1IP / RFU, CAPN2 / Fold change vs veh, CAPN2 / RFU, MED14 / Fold change vs veh, MED14 / RFU, SNORA58 / Fold change vs veh, SNORA58 / RFU, C1orf63 / Fold change vs veh, C1orf63 / RFU, LRRFIP1 / Fold change vs veh, LRRFIP1 / RFU, NDUFAF7 / Fold change vs veh, NDUFAF7 / RFU, SLC12A2 / Fold change vs veh, SLC12A2 / RFU, IBTK / Fold change vs veh, IBTK / RFU, ESF1 / Fold change vs veh, ESF1 / Fold change vs veh, TMEM50B / RFU, TAOK1 / Fold change vs veh, TAOK1 / RFU, ACBD3 / Fold change vs veh, ACBD3 / RFU, TMA16 / Fold change vs veh, TMA16 / RFU, RWDD3 / Fold change vs veh, RWDD3 / RFU, BCAT1 / Fold change vs veh, BCAT1 / RFU, EDEM3 / Fold change vs veh, EDEM3 / RFU, TMEM33 / Fold change vs veh, TMEM33 / RFU, WDR75 / Fold change vs veh, WDR75 / RFU, AHCTF1 / Fold change vs veh, AHCTF1 / RFU, TFRC / Fold change vs veh, TFRC / RFU, ZDHHC17 / Fold change vs veh, ZDHHC17 / RFU, NOM1 / Fold change vs veh, NOM1 / RFU, ARL8B / Fold change vs veh, ARL8B / RFU, ZBTB11 / Fold change vs veh, ZBTB11 / RFU, TAMM41 / Fold change vs veh, TAMM41 / RFU, KIAA1704 /// LOC100996395 / Fold change vs veh, KIAA1704 /// LOC100996395 / RFU, ING1 / Fold change vs veh, ING1 / RFU, TRMT61B / Fold change vs veh, TRMT61B / RFU, FUBP3 / Fold change vs veh, FUBP3 / RFU, TP53 / Fold change vs veh, TP53 / RFU, TNKS2 / Fold change vs veh, TNKS2 / RFU, ZFP14 / Fold change vs veh, ZFP14 / RFU, ACTR2 / Fold change vs veh, ACTR2 / RFU, PPP3R1 / Fold change vs veh, PPP3R1 / RFU, PIK3R1 / Fold change vs veh, PIK3R1 / RFU, HNRNPA1 / Fold change vs veh, HNRNPA1 / RFU, RNF170 / Fold change vs veh, RNF170 / RFU, ZNF28 / Fold change vs veh, ZNF28 / RFU, RNGTT / Fold change vs veh, RNGTT / RFU, OGT / Fold change vs veh, OGT / RFU, BRD1 / Fold change vs veh, BRD1 / RFU, MARS / Fold change vs veh, MARS / RFU, ZNF655 / Fold change vs veh, ZNF655 / RFU, FAHD1 / Fold change vs veh, FAHD1 / RFU, BDP1 / Fold change vs veh, BDP1 / RFU, LRRCC1 / Fold change vs veh, LRRCC1 / RFU, ARID1A / Fold change vs veh, ARID1A / RFU, ZNF146 / Fold change vs veh, ZNF146 / RFU, ZNF330 / Fold change vs veh, ZNF330 / RFU, GPN3 / Fold change vs veh, GPN3 / RFU, C9orf123 / Fold change vs veh, C9orf123 / RFU, N4BP2L2 / Fold change vs veh, N4BP2L2 / RFU, ARFIP1 / Fold change vs veh, ARFIP1 / RFU, FAM179B / Fold change vs veh, FAM179B / RFU, BCL10 / Fold change vs veh, BCL10 / RFU, UHRF1BP1L / Fold change vs veh, UHRF1BP1L / RFU, BET1 / Fold change vs veh, BET1 / RFU, CNOT2 / Fold change vs veh, CNOT2 / RFU, ZNF268 / Fold change vs veh, ZNF268 / Fold change vs veh, ZNF507 / RFU, DGCR2 / Fold change vs veh, DGCR2 / RFU, WDSUB1 / Fold change vs veh, WDSUB1 / Fold change vs veh, HSP90B1 /// MIR3652 / RFU, ADSS / Fold change vs veh, ADSS / RFU, GK / Fold change vs veh, GK / RFU, ZNF148 / Fold change vs veh, ZNF148 / RFU, TAF9 / Fold change vs veh, TAF9 / RFU, SLC1A5 / Fold change vs veh, SLC1A5 / RFU, SLMO2 / Fold change vs veh, SLMO2 / RFU, ABCC4 / Fold change vs veh, ABCC4 / RFU, LOC101060439 /// RAP1B / Fold change vs veh, LOC101060439 /// RAP1B / RFU, RFX7 / Fold change vs veh, RFX7 / RFU, GTPBP10 / Fold change vs veh, GTPBP10 / RFU, CNEP1R1 / Fold change vs veh, CNEP1R1 / RFU, BIVM-ERCC5 /// ERCC5 / Fold change vs veh, BIVM-ERCC5 /// ERCC5 / RFU, ILF3 / Fold change vs veh, ILF3 / RFU 11762660_at / Fold change /veh 11762660_at / RFU VCAN (11757783_s_at) / Fold change /veh VCAN (11757783_s_at) / RFU DDX43 (11728927_at) / Fold change /veh DDX43 (11728927_at) / RFU KRT8 (11758188_x_at) / Fold change /veh KRT8 (11758188_x_at) / RFU NKD1 (11759106_at) / Fold change /veh NKD1 (11759106_at) / RFU SRD5A1 (11742802_a_at) / Fold change /veh SRD5A1 (11742802_a_at) / RFU TPSAB1 /// TPSB2 (11721975_s_at) / Fold change /veh TPSAB1 /// TPSB2 (11721975_s_at) / RFU GSTM3 (11746129_a_at) / Fold change /veh GSTM3 (11746129_a_at) / RFU IL23R (11737362_x_at) / Fold change /veh IL23R (11737362_x_at) / RFU TMEM51 (11727254_a_at) / Fold change /veh TMEM51 (11727254_a_at) / RFU PIWIL2 (11732686_x_at) / Fold change /veh PIWIL2 (11732686_x_at) / RFU ORM1 (11744905_x_at) / Fold change /veh ORM1 (11744905_x_at) / RFU CCDC152 (11743942_at) / Fold change /veh CCDC152 (11743942_at) / RFU ECM1 (11717891_a_at) / Fold change /veh ECM1 (11717891_a_at) / RFU IL23R (11748794_a_at) / Fold change /veh IL23R (11748794_a_at) / RFU TNFAIP8L3 (11732012_x_at) / Fold change /veh TNFAIP8L3 (11732012_x_at) / RFU MBOAT4 (11741988_at) / Fold change /veh MBOAT4 (11741988_at) / RFU 11764193_at / Fold change /veh 11764193_at / RFU TMEM53 (11763286_at) / Fold change /veh TMEM53 (11763286_at) / RFU MAGEB2 (11727129_at) / Fold change /veh MAGEB2 (11727129_at) / RFU TMEM200A (11744735_a_at) / Fold change /veh TMEM200A (11744735_a_at) / RFU CCDC152 (11751479_a_at) / Fold change /veh CCDC152 (11751479_a_at) / RFU FAM211A (11726209_a_at) / Fold change /veh FAM211A (11726209_a_at) / RFU RGS16 (11746705_a_at) / Fold change /veh RGS16 (11746705_a_at) / RFU VCAN (11755009_s_at) / Fold change /veh VCAN (11755009_s_at) / RFU RHOB (11743442_s_at) / Fold change /veh RHOB (11743442_s_at) / RFU RGS16 (11720943_a_at) / Fold change /veh RGS16 (11720943_a_at) / RFU RGS16 (11720944_at) / Fold change /veh RGS16 (11720944_at) / RFU, VPS4B / Fold change vs veh, VPS4B / RFU, CREB1 / Fold change vs veh, CREB1 / RFU, DNAJC13 / Fold change vs veh, DNAJC13 / RFU, GNAQ / Fold change vs veh, GNAQ / RFU, CDK5R1 / Fold change vs veh, CDK5R1 / RFU, ZRANB3 / Fold change vs veh, ZRANB3 / RFU, CUL4A / Fold change vs veh, CUL4A / RFU, CCNY / Fold change vs veh, CCNY / RFU, UFL1 / Fold change vs veh, UFL1 / RFU, COG3 / Fold change vs veh, COG3 / RFU, DIAPH2 / Fold change vs veh, DIAPH2 / RFU, SKA2 / Fold change vs veh, SKA2 / RFU, AFF3 / Fold change vs veh, AFF3 / RFU, LMF1 / Fold change vs veh, LMF1 / RFU, IPO11 / Fold change vs veh, IPO11 / RFU, DFFB / Fold change vs veh, DFFB / RFU, FOXP1 / Fold change vs veh, FOXP1 / RFU, CARD8 / Fold change vs veh, CARD8 / RFU, STRN3 / Fold change vs veh, STRN3 / RFU, ADK / Fold change vs veh, ADK / RFU, RASSF2 / Fold change vs veh, RASSF2 / RFU, WIPF1 / Fold change vs veh, WIPF1 / RFU, LARP1B / Fold change vs veh, LARP1B / RFU, RASA1 / Fold change vs veh, RASA1 / RFU, RB1 / Fold change vs veh, RB1 / RFU, PPFIA1 / Fold change vs veh, PPFIA1 / RFU, MAT2A / Fold change vs veh, MAT2A / RFU, CCT5 / Fold change vs veh, CCT5 / RFU, WDR92 / Fold change vs veh, WDR92 / RFU, CUX1 / Fold change vs veh, CUX1 / RFU, TTC7A / Fold change vs veh, TTC7A / RFU, TMEM135 / Fold change vs veh, TMEM135 / RFU, DEPTOR / Fold change vs veh, DEPTOR / RFU, CPM / Fold change vs veh, CPM / RFU, DNAJB6 / Fold change vs veh, DNAJB6 / RFU, CACNA2D3 / Fold change vs veh, CACNA2D3 / RFU, DTX4 / Fold change vs veh, DTX4 / RFU, TFCP2 / Fold change vs veh, TFCP2 / RFU, GMCL1 /// GMCL1P1 / Fold change vs veh, GMCL1 /// GMCL1P1 / RFU, AEBP2 / Fold change vs veh, AEBP2 / RFU, SNHG1 /// SNORD22 /// SNORD25 /// SNORD26 /// SNORD27 /// SNORD28 /// SNORD29 /// SNORD31 / Fold change vs veh, SNHG1 /// SNORD22 /// SNORD25 /// SNORD26 /// SNORD27 /// SNORD28 /// SNORD29 /// SNORD31 / Fold change (Aza/veh), C12orf56 (ProbeSet 11735607_a_at) / Fold change (ACY-1035/veh), C12orf56 (ProbeSet 11735607_a_at) / Fold change (Aza/veh), FGFR1OP (ProbeSet 11751329_s_at) / Fold change (ACY-1035/veh), FGFR1OP (ProbeSet 11751329_s_at) / Fold change (Aza/veh), VPS36 (ProbeSet 11739960_a_at) / Fold change (ACY-1035/veh), VPS36 (ProbeSet 11739960_a_at) / RFU SYPL1 (11715823_x_at) / Fold change /veh SYPL1 (11715823_x_at) / RFU IGFBP7 (11715501_s_at) / Fold change /veh IGFBP7 (11715501_s_at) / RFU REEP3 (11722064_at) / Fold change /veh REEP3 (11722064_at) / RFU IGLL1 (11728026_x_at) / Fold change /veh IGLL1 (11728026_x_at): dose or concentration left out as unconfirmed. The format is cell-based, human. The conditions noted are these: ProbeSet 11758779_at; LIST B.

The structures appear in SMILES notation.

In the case of `Nc1ccc(-c2cccs2)cc1NC(=O)c1ccc2c(c1)cc(C1CC1)n2CCN1CCOCC1` [ACY-1035], the “Fold change vs veh, TMEM50B” value is 0.95.
